The structures appear in SMILES notation. Bounds are passed on as bounds.

As a reminder, the IC50 is the midpoint of a concentration-inhibition curve.

The target in the experiment is recombinant human SYK (GST-hSYK fusion protein) (Homo sapiens, UniProt P43405). The experiment in a line: biochemical. The settings on record: rhSYK Activity (IC50), recombinant human GST-SYK 5 pM, ATP 25 μM, biotinylated substrate peptide 250 nM, HTRF, 10-dose titration. (Time-resolved FRET reads energy transfer from a long-lived donor to a nearby acceptor.)
From the text: Homogeneous Time-Resolved Fluorescence (HTRF) Assay for the Recombinant Human SYK Enzyme:
For the molecule `COCC1CN(Cc2ncc(-c3cc(C)cc(Nc4nccc(C(F)(F)F)n4)c3)s2)CCO1` (stereo not drawn) [Example 88B-13], the IC50 is less than 100 nM.

In the case of `Cc1cc(Nc2nccc(C(F)(F)F)n2)cc(-c2cnc(CN3CCOC(CC(=O)O)C3)s2)c1` (stereo not drawn) [Example 88B-14], the half-maximal inhibitory concentration (IC50) was less than 100 nM.

With `Cc1cc(Nc2nccc(C(F)(F)F)n2)cc(-c2cnc(CN3CCC(P(=O)(O)O)C3)s2)c1` (stereo not drawn) [Example 88B-15], the concentration for half-maximal inhibition (IC50) is less than 100 nM.

Take `Cc1cc(Nc2nccc(C(F)(F)F)n2)cc(-c2cnc(CN3CC(COP(C)(C)=O)C3)s2)c1` [Example 88B-16]: the IC50 is less than 100 nM.

Consider `Cc1cc(Nc2nccc(C(F)(F)F)n2)cc(-c2cnc(CN3CCP(=O)(C(C)C)CC3)s2)c1` [Example 88B-17], for which the IC50 is less than 100 nM.

As to `Cc1cc(Nc2nccc(C(F)(F)F)n2)cc(-c2cnc(CO)s2)c1` [Example 89, [5-(3-methyl-5-{[4-(trifluoromethyl)pyrimidin-2-yl]amino}phenyl)-1,3-thiazol-2-yl]methanol], the IC50 is less than 100 nM.

`Cc1cc(Nc2nccc(C(F)(F)F)n2)cc(-c2cnc(CBr)s2)c1` [Example 90, N-{3-[2-(bromomethyl)-1,3-thiazol-5-yl]-5-methylphenyl}-4-(trifluoromethyl)pyrimidin-2-amine]: the half-maximal inhibitory concentration (IC50) was less than 100 nM.

On to `CCOC(=O)C1(Cc2ncc(-c3cc(C)cc(Nc4nccc(C(F)(F)F)n4)c3)s2)CCNC1=O` (stereo not drawn) [Example 91, Ethyl 3-{[5-(3-methyl-5-{[4-(trifluoromethyl)pyrimidin-2-yl]amino}phenyl)-1,3-thiazol-2-yl]-methyl}-2-oxopyrrolidine-3-carboxylate], for which the IC50 was less than 100 nM.

Take `Cc1cc(Nc2nccc(C(F)(F)F)n2)cc(-c2cnc(CC3(C(=O)O)CCNC3=O)s2)c1` (stereo not drawn) [Example 92, 3-{[5-(3-methyl-5-{[4-(trifluoromethyl)pyrimidin-2-yl]amino}phenyl)-1,3-thiazol-2-yl]methyl}-2-oxopyrrolidine-3-carboxylic acid]: the IC50 is less than 100 nM.

In the case of `Cc1cc(Nc2nccc(C(F)(F)F)n2)cc(-c2cnc(CN3CCOC3=O)s2)c1` [Example 92-1], the IC50 is less than 100 nM.

`Cc1cc(Nc2nccc(C(F)(F)F)n2)cc(-c2cnc(CN3CCCC3=O)s2)c1` [Example 92-2]: the IC50 was less than 100 nM.

Regarding `Cc1cc(Nc2nccc(C(F)(F)F)n2)cc(-c2cnc(CN3CCN(C)C3=O)s2)c1` [Example 92-3], the IC50 was less than 100 nM.

`Cc1cc(Nc2nccc(OC3CNC3)n2)cc(-c2cnc(C3(O)CCC3)s2)c1` [Example 93, 1-[5-(3-{[4-(azetidin-3-yloxy)pyrimidin-2-yl]amino}-5-methylphenyl)-1,3-thiazol-2-yl]cyclobutanol]: the IC50 is less than 100 nM.

On to `Cc1cc(Nc2nccc(OC3COC3)n2)cc(-c2cnc(C3(O)CCC3)s2)c1` [Example 94, 1-[5-(3-methyl-5-{[4-(oxetan-3-yloxy)pyrimidin-2-yl]amino}phenyl)-1,3-thiazol-2-yl]cyclobutanol], for which the IC50 is less than 100 nM.

For `Cc1cc(Nc2nccc(OCc3ccncc3)n2)cc(-c2cnc(C3(O)CCC3)s2)c1` [Example 94A-1], the IC50 is less than 100 nM.

`Cc1cc(Nc2nccc(OCc3cccnc3)n2)cc(-c2cnc(C3(O)CCC3)s2)c1` [Example 94A-2]: the IC50 is less than 100 nM.

With `Cc1cc(Nc2nccc(OCc3ccccn3)n2)cc(-c2cnc(C3(O)CCC3)s2)c1` [Example 94A-3], the IC50 was less than 100 nM.

As for `Cc1cc(Nc2nccc(OCC3COCCO3)n2)cc(-c2cnc(C3(O)CCC3)s2)c1` (stereo not drawn) [Example 94A-4], the IC50 is less than 100 nM.

On to `Cc1cc(Nc2nccc(OCCC3CCOCC3)n2)cc(-c2cnc(C3(O)CCC3)s2)c1` [Example 94A-5], for which the IC50 was less than 100 nM.

On to `Cc1cc(Nc2ncc(F)c(OC3CCOC3)n2)cc(-c2cnc(C3(O)CCC3)s2)c1` (stereo not drawn) [Example 94A-6], for which the half-inhibitory concentration (IC50) was 100 to 1000 nM.

In the case of `Cc1cc(Nc2nccc(OCC3CCOCC3)n2)cc(-c2cnc(C3(O)CCC3)s2)c1` [Example 94A-7], the half-maximal inhibitory concentration (IC50) is less than 100 nM.

As for `Cc1cc(Nc2nccc(O[C@@H]3CCOC3)n2)cc(-c2cnc(C3(O)CCC3)s2)c1` [Example 94A-8], the IC50 was less than 100 nM.

As for `Cc1cc(Nc2nccc(OCCOCc3ccccc3)n2)cc(-c2cnc(C3(O)CCC3)s2)c1` [Example 94A-9], the 50% inhibitory concentration (IC50) was in the range of 100 to 1000 nM.

As to `Cc1cc(Nc2nccc(O[C@H]3CCOC3)n2)cc(-c2cnc(C3(O)CCC3)s2)c1` [Example 94A-10], the IC50 is less than 100 nM.

On to `Cc1cc(Nc2nccc(OCCCCOCc3ccccc3)n2)cc(-c2cnc(C3(O)CCC3)s2)c1` [Example 94A-11], for which the IC50 was in the range of 100 to 1000 nM.

Take `COCCCOc1ccnc(Nc2cc(C)cc(-c3cnc(C4(O)CCC4)s3)c2)n1` [Example 94A-12]: the half-maximal inhibitory concentration (IC50) is less than 100 nM.

As to `Cc1cc(Nc2nccc(OCCCOCc3ccccc3)n2)cc(-c2cnc(C3(O)CCC3)s2)c1` [Example 94A-13], the IC50 is 100 to 1000 nM.

`COCCOc1ccnc(Nc2cc(C)cc(-c3cnc(C4(O)CCC4)s3)c2)n1` [Example 94A-14]: the IC50 is less than 100 nM.

For `Cc1cc(Nc2nccc(OCC3CCOC3)n2)cc(-c2cnc(C3(O)CCC3)s2)c1` (stereo not drawn) [Example 94A-15], the 50% inhibitory concentration (IC50) is less than 100 nM.

`CCOC(=O)C1CCC(Oc2ccnc(Nc3cc(C)cc(-c4cnc(C5(O)CCC5)s4)c3)n2)CC1` (stereo not drawn) [Example 94A-16, ethyl 4-{[2-({3-[2-(1-hydroxycyclobutyl)-1,3-thiazol-5-yl]-5-methylphenyl}-amino)pyrimidin-4-yl]oxy}cyclohexanecarboxylate]: the IC50 fell in the range of 100 to 1000 nM.

`Cc1cc(Nc2nccc(OC3CCOCC3)n2)cc(-c2cnc(C3(O)CCC3)s2)c1` [Example 94A-17]: the IC50 was less than 100 nM.

With `Cc1cc(Nc2nccc(OC3CCC(N)CC3)n2)cc(-c2cnc(C3(O)CCC3)s2)c1` (stereo not drawn) [Example 94A-18], the IC50 was less than 100 nM.

`Cc1cc(Nc2nccc(OC3CCNC(C)CC3)n2)cc(-c2cnc(C3(O)CCC3)s2)c1` (stereo not drawn) [Example 94A-20]: the IC50 is less than 100 nM.

As for `Cc1cc(Nc2nccc(OC3CCCNCC3)n2)cc(-c2cnc(C3(O)CCC3)s2)c1` (stereo not drawn) [Example 94A-21], the IC50 was less than 100 nM.

For the molecule `Cc1cc(Nc2nccc(O[C@H](C)C(=O)O)n2)cc(-c2cnc(C3(O)CCC3)s2)c1` [Example 94A-22], the IC50 was 100 to 1000 nM.

With `CNCCOc1ccnc(Nc2cc(C)cc(-c3cnc(C4(O)CCC4)s3)c2)n1` [Example 94A-23], the half-inhibitory concentration (IC50) is 100 to 1000 nM.

Consider `Cc1cc(Nc2nccc(OCC3CCNCC3)n2)cc(-c2cnc(C3(O)CCC3)s2)c1` [Example 94A-24], for which the 50% inhibitory concentration (IC50) is 100 to 1000 nM.

Take `Cc1cc(Nc2nccc(OC(C)(C)C(=O)OC(C)(C)C)n2)cc(-c2cnc(C3(O)CCC3)s2)c1` [Example 94A-25, tert-butyl 2-{[2-({3-[2-(1-hydroxycyclobutyl)-1,3-thiazol-5-yl]-5-methylphenyl}amino)-pyrimidin-4-yl]oxy}-2-methylpropanoate]: the IC50 lay in the range of 100 to 1000 nM.

Take `Cc1cc(Nc2nccc(OC3CCCNC3)n2)cc(-c2cnc(C3(O)CCC3)s2)c1` (stereo not drawn) [Example 94A-26]: the IC50 was less than 100 nM.

For the molecule `Cc1cc(Nc2nccc(OCC3CNC3)n2)cc(-c2cnc(C3(O)CCC3)s2)c1` [Example 94A-27], the concentration for half-maximal inhibition (IC50) was less than 100 nM.

In the case of `Cc1cc(Nc2nccc(OC3CCOC3)n2)cc(-c2cnc(C3(O)CCC3)s2)c1` (stereo not drawn) [Example 94A-29], the IC50 was less than 100 nM.

`Cc1cc(Nc2nccc(OC3CCC3)n2)cc(-c2cnc(C3(O)CCC3)s2)c1` [Example 94A-30]: the IC50 is less than 100 nM.

The record behind these values is patent publication US8551984B2, “Aminopyrimidines as SYK inhibitors” (Merck Sharp & Dohme Corp., priority 2009, dated 2013).
